Reference: US10759783B2, “Biaryl inhibitors of Bruton'S tyrosine kinase” (BIOGEN MA INC., priority 2013, dated 2020)

Key:
BTK enzyme = target: T1, BTK enzyme (Homo sapiens, UniProt Q06187); experiment: In vitro BTK kinase assay: BTK-POLYGAT-LS assay; type: biochemical; settings: ATP 10 μM, read-out: IC50 (10uMATP)
T1 construct: purchased Upstate 14-552
In short: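 Human BTK activity was measured with final 10 μM ATP and 100 nM polyGAT substrate in pH 7.5 Tris buffer with 10 mM MgCl2, DTT, Triton X-100 and casein.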

[1] = target: BTK (phospho-BTK) in human whole blood (Homo sapiens, UniProt Q06187); experiment: In vitro PD assay in human whole blood (pBTK assay)
Sequence of BTK (phospho-BTK) in human whole blood (Q06187 whole entry): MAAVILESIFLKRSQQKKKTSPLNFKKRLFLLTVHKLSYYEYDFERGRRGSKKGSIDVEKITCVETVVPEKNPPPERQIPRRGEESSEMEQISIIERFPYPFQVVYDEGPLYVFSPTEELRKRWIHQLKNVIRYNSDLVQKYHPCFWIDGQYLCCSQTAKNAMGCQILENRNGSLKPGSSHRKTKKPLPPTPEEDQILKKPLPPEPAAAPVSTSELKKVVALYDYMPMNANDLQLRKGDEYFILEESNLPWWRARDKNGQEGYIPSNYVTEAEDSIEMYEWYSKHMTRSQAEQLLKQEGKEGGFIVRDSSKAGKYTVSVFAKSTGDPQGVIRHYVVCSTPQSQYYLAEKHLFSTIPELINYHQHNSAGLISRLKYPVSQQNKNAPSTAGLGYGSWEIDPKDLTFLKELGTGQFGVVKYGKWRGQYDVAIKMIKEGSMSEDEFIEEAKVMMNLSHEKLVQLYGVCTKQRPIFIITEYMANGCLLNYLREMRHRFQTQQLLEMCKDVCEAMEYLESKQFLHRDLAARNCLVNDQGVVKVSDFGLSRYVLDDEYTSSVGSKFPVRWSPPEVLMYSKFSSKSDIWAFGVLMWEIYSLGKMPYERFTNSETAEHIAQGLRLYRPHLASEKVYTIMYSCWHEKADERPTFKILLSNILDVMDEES

T1 sequence (Q06187 whole entry): as above

| IC50 (BTK enzyme) [nM] | IC50 [1] [nM] | Structure (SMILES) |
| --- | --- | --- |
| < 10 | < 500 | Cc1cc(-c2ccnc(Nc3cnn(C4CC4)c3)n2)ccc1CNC(=O)c1cnn(C(C)(C)C)c1 [Example I-260, 1-tert-butyl-N-[[4-[2-[(1-cyclopropylpyrazol-4-yl)amino]pyrimidin-4-yl]-2-methyl-phenyl]methyl]pyrazole-4-carboxamide] |
| 10 to 99 | < 500 | COC1CN(C(=O)NC2CCCCc3cc(-c4ccnc(Nc5cnn(C)c5)n4)ccc32)C1 (stereo not shown) [Example I-339, 3-methoxy-N-[2-[2-[(1-methylpyrazol-4-yl)amino]pyrimidin-4-yl]-6,7,8,9-tetrahydro-5H-benzo[7]annulen-5-yl]azetidine-1-carboxamide] |
| < 10 | < 500 | CC(C)(C)C1CCN(C(=O)NC2CCCCc3cc(-c4ccnc(Nc5cnn(C6CCOCC6)c5)n4)ccc32)C1 (stereo not shown) [Example I-330, 3-tert-butyl-N-[2-[2-[(1-tetrahydropyran-4-ylpyrazol-4-yl)amino]pyrimidin-4-yl]-6,7,8,9-tetrahydro-5H-benzo[7]annulen-5-yl]pyrrolidine-1-carboxamide] |
| < 10 | 1500 to 10000 | Cc1cc(-c2ccnc(N)n2)ccc1CNC(=O)c1cnc(C(C)(C)C)s1 [Example I-135, N-(4-(2-aminopyrimidin-4-yl)-2-methylbenzyl)-2-(tert-butyl)thiazole-5-carboxamide] |
| < 10 | < 500 | CC(C)(C)C1CCN(C(=O)NCc2ccc(-c3ccnc(Nc4cnn([C@H]5CCNC5)c4)n3)cc2C(F)(F)F)C1 (stereo partly drawn) [Example I-316, 3-tert-butyl-N-[[4-[2-[[1-[(3S)-pyrrolidin-3-yl]pyrazol-4-yl]amino]pyrimidin-4-yl]-2-(trifluoromethyl)phenyl]methyl]pyrrolidine-1-carboxamide] |
| < 10 | < 500 | Cc1cc(-c2ccnc(Nc3cnn(C4CCOCC4)c3)n2)ccc1CNC(=O)N1CC(OC(C)C)C1 [Example I-221, 3-isopropoxy-N-(2-methyl-4-(2-((1-(tetrahydro-2H-pyran-4-yl)-1H-pyrazol-4-yl)amino)pyrimidin-4-yl)benzyl)azetidine-1-carboxamide] |
| < 10 | < 500 | Cc1cc(-c2ccnc(Nc3cnn(C)c3)n2)ccc1CNC(=O)N1CC[C@H](C(C)(C)C)C1 [Example I-253, (3R)-3-tert-butyl-N-[[2-methyl-4-[2-[(1-methylpyrazol-4-yl)amino]pyrimidin-4-yl]phenyl]methyl]pyrrolidine-1-carboxamide] |
| < 10 | < 500 | Cc1cc(-c2ccnc(Nc3cnn([C@H]4CCNC4)c3)n2)ccc1CNC(=O)c1cnc(C(C)(C)C)s1 [Example I-124, (S)-2-(tert-butyl)-N-(2-methyl-4-(2-((1-(pyrrolidin-3-yl)-1H-pyrazol-4-yl)amino)pyrimidin-4-yl)benzyl)thiazole-5-carboxamide] |
| < 10 | < 500 | Cc1cc(-c2ccnc(Nc3cnn(C4CCC(C(=O)O)CC4)c3)n2)ccc1CNC(=O)c1cnn(C(C)(C)C)c1 (stereo in doubt) [Example I-195, cis-4-(4-((4-(4-((1-(tert-butyl)-1H-pyrazole-4-carboxamido)methyl)-3-methylphenyl)pyrimidin-2-yl)amino)-1H-pyrazol-1-yl)cyclohexanecarboxylic acid] |
| < 10 | 500 to 1500 | Cn1cc(Nc2nccc(-c3ccc4c(c3)CCCC4NC(=O)c3cc4c(s3)CCOC4)n2)cn1 (stereo not shown) [Example I-95, N-(6-(2-((1-methyl-1H-pyrazol-4-yl)amino)pyrimidin-4-yl)-1,2,3,4-tetrahydronaphthalen-1-yl)-6,7-dihydro-4H-thieno[3,2-c]pyran-2-carboxamide] |
| < 10 | 500 to 1500 | Cc1cc(-c2cc(Nc3cnn(C)n3)ncn2)ccc1CNC(=O)c1cnc(C(C)(C)C)s1 [Example I-67, 2-(tert-butyl)-N-(2-methyl-4-(6-((2-methyl-2H-1,2,3-triazol-4-yl)amino)pyrimidin-4-yl)benzyl)thiazole-5-carboxamide] |
| < 10 | < 500 | Cc1cc(-c2ccnc(Nc3cnn(C4CCN(C)CC4)c3)n2)ccc1CNC(=O)c1cc(C(C)(C)C)on1 [Example I-196, 5-(tert-butyl)-N-(2-methyl-4-(2-((1-(1-methylpiperidin-4-yl)-1H-pyrazol-4-yl)amino)pyrimidin-4-yl)benzyl)isoxazole-3-carboxamide] |
| < 10 | < 500 | Cc1cc(-c2cc(Nc3cc4n(n3)CCOC4)ncn2)ccc1CNC(=O)c1cnc(C(C)(C)C)s1 [Example I-276, 2-tert-butyl-N-[[4-[6-(6,7-dihydro-4H-pyrazolo[5,1-c][1,4]oxazin-2-ylamino)pyrimidin-4-yl]-2-methyl-phenyl]methyl]thiazole-5-carboxamide] |
| < 10 | < 500 | CC(C)OC1CN(C(=O)NC2CCCCc3cc(-c4ccnc(Nc5cnn(C6CCOCC6)c5)n4)ccc32)C1 (stereo not shown) [Example I-172, 3-isopropoxy-N-(2-(2-((1-(tetrahydro-2H-pyran-4-yl)-1H-pyrazol-4-yl)amino)pyrimidin-4-yl)-6,7,8,9-tetrahydro-5H-benzo[7]annulen-5-yl)azetidine-1-carboxamide] |
| < 10 | 500 to 1500 | Cc1cc(-c2ccnc(Nc3cnn(CCO)c3)n2)ccc1CNC(=O)c1cc2c(s1)CCOC2 [Example I-120, N-(4-(2-((1-(2-hydroxyethyl)-1H-pyrazol-4-yl)amino)pyrimidin-4-yl)-2-methylbenzyl)-6,7-dihydro-4H-thieno[3,2-c]pyran-2-carboxamide] |
| < 10 | < 500 | CC(C)OC1CN(C(=O)NCc2ccc(-c3ccnc(Nc4cnn(CCO)c4)n3)cc2C(F)(F)F)C1 [Example I-301, N-[[4-[2-[[1-(2-hydroxyethyl)pyrazol-4-yl]amino]pyrimidin-4-yl]-2-(trifluoromethyl)phenyl]methyl]-3-isopropoxy-azetidine-1-carboxamide] |
| < 10 | < 500 | Cc1cc(-c2ccnc(Nc3cnn(C4CCNCC4)c3)n2)ccc1CNC(=O)c1cnc(C(C)(C)C)s1 [Example I-45, 2-(tert-butyl)-N-(2-methyl-4-(2-((1-(piperidin-4-yl)-1H-pyrazol-4-yl)amino)pyrimidin-4-yl)benzyl)thiazole-5-carboxamide] |
| < 10 | < 500 | Cc1cc(-c2ccnc(Nc3cnn(CCO)c3)n2)ccc1CNC(=O)N1CC(OC(C)C)C1 [Example I-217, N-(4-(2-((1-(2-hydroxyethyl)-1H-pyrazol-4-yl)amino)pyrimidin-4-yl)-2-methylbenzyl)-3-isopropoxyazetidine-1-carboxamide] |
| < 10 | < 500 | CC(C)C1CCN(C(=O)NC2CCCCc3cc(-c4ccnc(Nc5cnn(CCO)c5)n4)ccc32)C1 (stereo not shown) [Example I-181, N-(2-(2-((1-(2-hydroxyethyl)-1H-pyrazol-4-yl)amino)pyrimidin-4-yl)-6,7,8,9-tetrahydro-5H-benzo[7]annulen-5-yl)-3-isopropylpyrrolidine-1-carboxamide] |
| < 10 | < 500 | CC(C)(C)C1CCN(C(=O)NCc2ccc(-c3ccnc(Nc4cnn5c4CCC5)n3)cc2CCO)C1 (stereo not shown) [Example I-324, 3-tert-butyl-N-[[4-[2-(5,6-dihydro-4H-pyrrolo[1,2-b]pyrazol-3-ylamino)pyrimidin-4-yl]-2-(2-hydroxyethyl)phenyl]methyl]pyrrolidine-1-carboxamide] |

| Structure (SMILES) | IC50 (BTK enzyme) [nM] | IC50 [1] [nM] |
| --- | --- | --- |
| Cc1cc(-c2cc(Nc3cc4n(n3)CCN(C)C4)ncn2)ccc1CNC(=O)N1CC(OC(C)(C)C)C1 [Example I-256, 3-tert-butoxy-N-[[2-methyl-4-[6-[(5-methyl-6,7-dihydro-4H-pyrazolo[1,5-a]pyrazin-2-yl)amino]pyrimidin-4-yl]phenyl]methyl]azetidine-1-carboxamide] | < 10 | < 500 |
| CN1CCC(n2cc(Nc3nccc(-c4ccc5c(c4)CCCCC5NC(=O)N4CC(OC(C)(C)C)C4)n3)cn2)CC1 (stereo not shown) [Example I-180, 3-(tert-butoxy)-N-(2-(2-((1-(1-methylpiperidin-4-yl)-1H-pyrazol-4-yl)amino)pyrimidin-4-yl)-6,7,8,9-tetrahydro-5H-benzo[7]annulen-5-yl)azetidine-1-carboxamide] | < 10 | < 500 |
| COCCn1cc(Nc2nccc(-c3ccc4c(c3)CCCCC4NC(=O)N3CC(OC(C)(C)C)C3)n2)cn1 (stereo not shown) [Example I-175, 3-(tert-butoxy)-N-(2-(2-((1-(2-methoxyethyl)-1H-pyrazol-4-yl)amino)pyrimidin-4-yl)-6,7,8,9-tetrahydro-5H-benzo[7]annulen-5-yl)azetidine-1-carboxamide] | < 10 | < 500 |
| CC(C)(C)OC1CN(C(=O)NC2CCCCc3cc(-c4ccnc(Nc5cnn(CCO)c5)n4)ccc32)C1 (stereo not shown) [Example I-178, 3-(tert-butoxy)-N-(2-(2-((1-(2-hydroxyethyl)-1H-pyrazol-4-yl)amino)pyrimidin-4-yl)-6,7,8,9-tetrahydro-5H-benzo[7]annulen-5-yl)azetidine-1-carboxamide] | < 10 | < 500 |
| Cn1cc(Nc2nccc(-c3ccc4c(c3)CCCC[C@H]4NC(=O)N3CC(OC(C)(C)C)C3)n2)cn1 [Example I-164, (R)-3-(tert-butoxy)-N-(2-(2-((1-methyl-1H-pyrazol-4-yl)amino)pyrimidin-4-yl)-6,7,8,9-tetrahydro-5H-benzo[7]annulen-5-yl)azetidine-1-carboxamide] | < 10 | < 500 |
| CC(C)(C)OC1CN(C(=O)NC2CCCCc3cc(-c4cc(Nc5cc6n(n5)CCOC6)ncn4)ccc32)C1 (stereo not shown) [Example I-332, 3-tert-butoxy-N-[2-[6-(6,7-dihydro-4H-pyrazolo[5,1-c][1,4]oxazin-2-ylamino)pyrimidin-4-yl]-6,7,8,9-tetrahydro-5H-benzo[7]annulen-5-yl]azetidine-1-carboxamide] | < 10 | < 500 |
